This note sets out measurements from patent US6806278B2, “Amino-tetralin derivatives as muscarinic receptor antagonists” (Syntex (U.S.A.) LLC, priority 2001, dated 2004).

Assay [1] deals with T1, recombinant human muscarinic receptor m2 (Homo sapiens, UniProt P08172).
T1 construct: expressed in transfected cells; host or cells: Chinese hamster ovary (CHO) cells, membrane preparation
T1 sequence (P08172 1-466): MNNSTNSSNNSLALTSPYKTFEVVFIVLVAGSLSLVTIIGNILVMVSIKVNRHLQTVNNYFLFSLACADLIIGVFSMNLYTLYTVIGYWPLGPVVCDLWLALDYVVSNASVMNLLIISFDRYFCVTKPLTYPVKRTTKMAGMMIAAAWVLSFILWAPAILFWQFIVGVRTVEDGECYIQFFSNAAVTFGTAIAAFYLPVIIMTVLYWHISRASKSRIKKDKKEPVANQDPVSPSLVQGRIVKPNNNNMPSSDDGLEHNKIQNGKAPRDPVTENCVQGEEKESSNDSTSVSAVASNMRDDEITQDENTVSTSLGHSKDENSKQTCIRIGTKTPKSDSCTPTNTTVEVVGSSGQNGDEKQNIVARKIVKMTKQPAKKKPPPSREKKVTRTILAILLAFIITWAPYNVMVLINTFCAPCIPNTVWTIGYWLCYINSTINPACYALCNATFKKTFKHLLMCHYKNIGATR
Put plainly: Radioligand binding studies, [3H]N-methyl scopolamine, m2. To be noted: CHO cell membranes, [3H]N-methyl scopolamine 0.4 nM; pIC50 converted to pKi by Cheng-Prusoff. As to the method: (§1) The compounds of this invention are muscarinic receptor antagonists. The muscarinic receptor affinity of test compounds can be determined by an in vitro receptor binding assay which utilizes a cell membrane preparation from the Chinese hamster ovary cells expressing the recombinant human muscarinic receptors (M1-M5), and is described in more detail in Example 12.
(§2) The inhibitory activity of compounds of this invention in vitro was determined using a modification of the method described in Hegde, S. S. et al. 1997 Br. J. Pharmacol., 120, 1409-1418.
(§3) Cell membranes from Chinese hamster ovary cells expressing the recombinant human muscarinic receptors (m1-m5) were employed. The assays were conducted with the radioligand [^3H]N-methyl scopolamine (0.4 nM, specific activity 84 Ci·mmol^−1) in a final volume of 0.25 mL Tris-Krebs buffer. Non-specific binding was defined with 1 μM atropine. Assays were performed using scintillation proximity assay technology. Competition-displacement curves were generated using 10 concentrations of test compounds and were analyzed by iterative curve fitting to a four parameter logistic equation. pIC50 values (-log of the IC50) were converted to pKi values using the Cheng-Prusoff equation.

The target in assay [2] is T2, recombinant human muscarinic receptor m3 (Homo sapiens, UniProt P20309).
T2 construct: expressed in transfected cells; host or cells: Chinese hamster ovary (CHO) cells, membrane preparation
T2 sequence (P20309 whole entry): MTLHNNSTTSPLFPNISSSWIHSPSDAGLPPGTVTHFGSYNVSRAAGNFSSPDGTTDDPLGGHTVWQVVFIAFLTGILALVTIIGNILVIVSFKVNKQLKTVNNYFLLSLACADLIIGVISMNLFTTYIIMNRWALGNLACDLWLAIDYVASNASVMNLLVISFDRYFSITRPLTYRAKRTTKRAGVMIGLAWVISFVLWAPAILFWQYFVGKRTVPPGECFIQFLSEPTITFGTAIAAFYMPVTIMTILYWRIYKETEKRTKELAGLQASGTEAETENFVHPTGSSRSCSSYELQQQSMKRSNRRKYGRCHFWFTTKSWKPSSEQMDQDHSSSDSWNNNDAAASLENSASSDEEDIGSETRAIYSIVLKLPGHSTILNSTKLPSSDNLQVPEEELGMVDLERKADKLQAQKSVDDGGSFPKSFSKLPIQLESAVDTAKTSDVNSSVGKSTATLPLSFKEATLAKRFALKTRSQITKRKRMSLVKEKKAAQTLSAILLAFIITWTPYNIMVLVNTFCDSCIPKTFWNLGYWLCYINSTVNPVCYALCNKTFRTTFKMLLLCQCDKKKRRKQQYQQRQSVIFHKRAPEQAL
Put plainly: Radioligand binding studies, [3H]N-methyl scopolamine, m3. To be noted: CHO cell membranes, [3H]N-methyl scopolamine 0.4 nM; pIC50 converted to pKi by Cheng-Prusoff. As to the method:
as §1, §2, §3

The Ki is the dissociation constant of the complex between target and ligand, obtained from inhibition or displacement.

Take `CCCN(C1CCN(C(C)=O)CC1)C1CCc2ccc(OC)cc2C1` (centres unmarked) [Cpd 15, 1-{4-[(7-methoxy-1,2,3,4-tetrahydro-naphthalen-2-yl)-propyl-amino]-piperidin-1-yl}ethanone]: the Ki was 4.27 nM in assay [1] and 6.76 nM in assay [2].
On the same counts, the results for `CCCN(C1CCN(C(=O)C2CCNCC2)CC1)C1CCc2ccc(Br)cc2C1` (centres unmarked) [Cpd 35, {4-[(7-bromo-1,2,3,4-tetrahydro-naphthalen-2-yl)-propyl-amino]-piperidin-1-yl}-piperidin-4-yl-methanone] are 1.82 nM and 0.891 nM.
On the same counts, the results for `CCCN(C1CCN(C(=O)C2CCNCC2)CC1)C1CCc2cc(OC)c(OC)cc2C1` (centres unmarked) [Cpd 28, {4-[(6,7-dimethoxy-1,2,3,4-tetrahydro-naphthalen-2-yl)-propyl-amino]-piperidin-1-yl}-piperidin-4-yl-methanone] are 5.01 nM and 11.5 nM.
For `CCCN(C1CCN(C(=O)N(CC)CC)CC1)C1CCc2ccc(OC)cc2C1` (centres unmarked) [Cpd 5, 4-[(7-methoxy-1,2,3,4-tetrahydro-naphthalen-2-yl)-propyl-amino]-piperidine-1-carboxylic acid diethylamide], the Ki was 3.16 nM in assay [1] and 5.89 nM in assay [2].
For `CCCN(C1CCN(C(=O)C2CCNCC2)CC1)[C@@H]1CCc2ccc(OC)cc2C1` [Cpd 39, {4-[((R)-7-methoxy-1,2,3,4-tetrahydro-naphthalen-2-yl)-propyl-amino]-piperidin-1-yl}-piperidin-4-yl-methanone] the same measures were 2.19 nM and 0.955 nM.
For `CCCN(C1CCN(C(=O)c2ccco2)CC1)C1CCc2ccc(OC)cc2C1` (centres unmarked) [Cpd 4, furan-2-yl-{4-[(7-methoxy-1,2,3,4-tetrahydro-naphthalen-2-yl)-propyl-amino]-piperidin-1-yl}-methanone] the same measures were 26.3 nM and 51.3 nM.
On the same counts, the results for `CCCN(C1CCN(C(=O)N2CCOCC2)CC1)C1CCc2ccc(OC)cc2C1` (centres unmarked) [Cpd 1, {4-[(7-methoxy-1,2,3,4-tetrahydro-naphthalen-2-yl)-propyl-amino]-piperidin-1-yl}-morpholin-4-yl-methanone] are 2.69 nM and 1.48 nM.
Regarding `CCCN(C1CCN(C(=O)c2ccccc2C)CC1)C1CCc2ccc(OC)cc2C1` (centres unmarked) [Cpd 3, {4-[(7-methoxy-1,2,3,4-tetrahydro-naphthalen-2-yl)-propyl-amino]-piperidin-1-yl}o-tolyl-methanone], the Ki in assay [1] was 41.7 nM; in assay [2] it was 49 nM.
For `CCCN(C1CCN(C(=O)N2CCNCC2)CC1)C1CCc2ccc(OC)cc2C1` (centres unmarked) [Cpd 16, {4-[(7-methoxy-1,2,3,4-tetrahydro-naphthalen-2-yl)-propyl-amino]-piperidin-1-yl}-piperazin-1-yl-methanone] the same measures were 0.977 nM and 1.58 nM.
`CCCN(C1CCN(C(=O)N2CCN(C)CC2)CC1)C1CCc2ccc(OC)cc2C1` (centres unmarked) [Cpd 23, {4-[(7-methoxy-1,2,3,4-tetrahydro-naphthalen-2-yl)-propyl-amino]-piperidin-1-yl}-(4-methyl-piperazin-1-yl)-methanone]: the results for the Ki in assay [1] and in assay [2] were 0.575 nM and 2.75 nM, respectively.
